This is an account of results in ChEMBL document CHEMBL6127044, “An insight into G-quadruplexes: Identification and potential therapeutic targets in livestock viruses” (Eur J Med Chem, 2024).

This test concerns SARS-CoV-2. In words: Antiviral activity against SARS-CoV-2 Wuhan 5-2N variant infected in African green monkey Vero E6 cells measured 3 days post infection by WST-8 assay. Type of test: functional, organism-based. To be noted: Severe acute respiratory syndrome coronavirus 2, Wuhan 5-2N, Vero C1008, 72 h.

Usually EC50 stands for the concentration that produces a half-maximal response. Consider `CCc1c(C)c2cc3nc(cc4nc(cc5c(CC)c(C)c(cc1[nH]2)n5C)C(C)=C4CCC(=O)O)C(CCC(=O)O)=C3C`, for which the concentration for a half-maximal effect (EC50) amounted to 1.16 nM.
